Test results from ChEMBL document CHEMBL1150002, “Synthesis and biological activities of new heterocyclic aromatic retinoids” (Bioorg Med Chem Lett, 1997).
Calls of active or inactive are those of the source. No cut-off for these calls is given here.

Legend:
[1] = biological target: T1, Retinoic acid receptor RXR-alpha (Homo sapiens) (UniProt P19793); test: Evaluated for RXR-alpha functional transcriptional activation; NA means not active at 1 uM
T1 sequence (whole entry): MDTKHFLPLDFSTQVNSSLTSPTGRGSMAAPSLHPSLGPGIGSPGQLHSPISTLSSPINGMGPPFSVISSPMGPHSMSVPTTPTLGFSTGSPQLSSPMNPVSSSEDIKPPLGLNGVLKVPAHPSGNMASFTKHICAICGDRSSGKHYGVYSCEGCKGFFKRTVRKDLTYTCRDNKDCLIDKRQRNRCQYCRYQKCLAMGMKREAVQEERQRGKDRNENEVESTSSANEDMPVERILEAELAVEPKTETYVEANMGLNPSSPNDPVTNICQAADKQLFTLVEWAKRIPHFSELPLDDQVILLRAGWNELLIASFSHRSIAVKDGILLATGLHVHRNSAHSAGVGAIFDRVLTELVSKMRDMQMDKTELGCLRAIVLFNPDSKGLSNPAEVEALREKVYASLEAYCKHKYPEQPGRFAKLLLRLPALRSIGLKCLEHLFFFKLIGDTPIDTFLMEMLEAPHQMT

[2] = test system: F9; test: Compound was tested for its ability to induce differentiation of F9 cells as estimated by plasminogen activator secretion (PA); assay type: functional, cell-based; conditions: Mus musculus
[3] = biological target: T2, Retinoic acid receptor gamma (Homo sapiens, UniProt P13631); test: Binding affinity towards Retinoic acid receptor gamma
T2 sequence (P13631 whole entry): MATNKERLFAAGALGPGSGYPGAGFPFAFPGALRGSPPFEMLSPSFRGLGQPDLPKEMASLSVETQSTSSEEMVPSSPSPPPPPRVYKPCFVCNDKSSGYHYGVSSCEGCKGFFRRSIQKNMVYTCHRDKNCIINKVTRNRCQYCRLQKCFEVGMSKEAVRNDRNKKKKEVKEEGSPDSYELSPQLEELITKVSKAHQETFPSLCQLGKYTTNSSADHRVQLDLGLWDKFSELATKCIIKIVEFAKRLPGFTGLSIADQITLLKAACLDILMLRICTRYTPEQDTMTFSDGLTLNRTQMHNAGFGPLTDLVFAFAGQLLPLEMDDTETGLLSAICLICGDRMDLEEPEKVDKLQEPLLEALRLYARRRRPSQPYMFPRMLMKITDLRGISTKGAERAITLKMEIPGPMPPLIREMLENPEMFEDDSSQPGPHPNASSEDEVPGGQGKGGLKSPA

[4] = biological target: T3, Retinoic acid receptor alpha (Homo sapiens, UniProt P10276); test: Binding affinity towards Retinoic acid receptor alpha
T3 sequence (P10276 whole entry): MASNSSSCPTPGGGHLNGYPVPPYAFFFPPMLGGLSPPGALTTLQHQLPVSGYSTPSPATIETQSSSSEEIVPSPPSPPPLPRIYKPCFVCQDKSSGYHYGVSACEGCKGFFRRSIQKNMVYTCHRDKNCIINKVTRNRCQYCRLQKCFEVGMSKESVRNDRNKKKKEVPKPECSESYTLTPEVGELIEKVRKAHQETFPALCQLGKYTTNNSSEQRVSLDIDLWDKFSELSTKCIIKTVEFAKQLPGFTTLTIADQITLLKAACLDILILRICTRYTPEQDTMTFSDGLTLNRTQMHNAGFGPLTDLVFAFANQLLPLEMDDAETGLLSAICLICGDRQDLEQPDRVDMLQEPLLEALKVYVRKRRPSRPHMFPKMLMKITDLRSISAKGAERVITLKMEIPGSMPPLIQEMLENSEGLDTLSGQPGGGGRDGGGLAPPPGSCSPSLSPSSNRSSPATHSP

[5] = biological target: T4, Retinoic acid receptor beta (Homo sapiens, UniProt P10826); test: Binding affinity towards Retinoic acid receptor beta
T4 sequence (P10826 whole entry): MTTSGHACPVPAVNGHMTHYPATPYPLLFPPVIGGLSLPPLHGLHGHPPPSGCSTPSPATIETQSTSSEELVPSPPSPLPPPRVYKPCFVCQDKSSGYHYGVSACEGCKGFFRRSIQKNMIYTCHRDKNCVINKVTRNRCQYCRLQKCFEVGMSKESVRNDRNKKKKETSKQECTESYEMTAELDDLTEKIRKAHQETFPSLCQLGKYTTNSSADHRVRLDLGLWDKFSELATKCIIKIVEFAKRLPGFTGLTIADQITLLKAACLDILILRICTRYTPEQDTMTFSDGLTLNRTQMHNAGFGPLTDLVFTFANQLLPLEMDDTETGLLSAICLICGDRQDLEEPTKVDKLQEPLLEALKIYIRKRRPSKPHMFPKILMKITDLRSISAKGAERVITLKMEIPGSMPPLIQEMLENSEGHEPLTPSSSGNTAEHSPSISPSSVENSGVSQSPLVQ

[6] = test system: F9; test: Compound was tested for its ability to induce differentiation of F9 cells as estimated by plasminogen activator secretion (PA); NA = Not active; assay type: functional, cell-based, Mus musculus

Compound	Activity [1]	Ki [3] [nM]	Ki [4] [nM]	Ki [5] [nM]	AC50 [2] [nM]	AC50 [6]
CC1(C)CCC(C)(C)c2cc(-c3ccc4cc(C(=O)O)ccc4c3)ccc21	inactive					
COc1ccc(-c2ccc3cc(C(=O)O)ccc3c2)cc1C12CC3CC(CC(C3)C1)C2	inactive					
CC(C)(C)c1cc(C2=Cc3ccc(C(=O)O)cc3OC2)ccc1O	inactive	> 3000	> 3000	> 3000		Not Active
CC(C)(C)c1cc(C2=Cc3ccc(C(=O)O)cc3OC2)cc(C(C)(C)C)c1O	inactive	531		> 3000	305	

Now from value to compound, other results behind:

Activity [1]	Ki [3] [nM]	Ki [4] [nM]	Ki [5] [nM]	Compound	AC50 [2] [nM]	AC50 [6]
inactive	1040	5790	90	CC1(C)CCC(C)(C)c2cc(C3COc4cc(C(=O)O)ccc4C3)ccc21 (centres undefined)	300	
inactive	148	821	> 3000	O=C(O)c1ccc2c(c1)OCC(c1ccc(O)c(C34C[C@H]5C[C@@H](C3)C[C@@H](C4)C5)c1)=C2	107	
inactive	174	764	71	COc1ccc(C2=Cc3ccc(C(=O)O)cc3OC2)cc1C12C[C@H]3C[C@@H](C1)C[C@@H](C2)C3		
inactive		> 3000	> 3000	CC(C)(C)c1cc(-c2ccc3cc(C(=O)O)ccc3c2)ccc1O		Not Active
inactive	19	487	36	CC1(C)CCC(C)(C)c2cc(C3=Cc4ccc(C(=O)O)cc4OC3)ccc21	58	
